Laboratory results from US10653822B2, “Drug delivery devices and methods of making and using same” (The Administrators of the Tulane Educational Fund, priority 2012, dated 2020).
Where two headings read alike, the source gives them in different places. One block for each compound: values may come before it.

Legend:
[1] = cited from earlier work
[2] = In vitro release of 5-FU from double-layered breath figure PLGA films in PBS; assay type: physicochemical
Description: IN VITRO RELEASE CHARACTERISTICS OF DOUBLE-LAYERED 5-FU-PLGA FILM. […] At specific time intervals, a 1 ml aliquot of the solution was withdrawn and 1 ml of fresh PBS was added to the vial to maintain constant volume. The pH of the medium was monitored during the course of the experiment to verify that the solution was buffered adequately during polymer degradation. Each aliquot was centrifuged to remove any possible debris from the degraded polymer components that could interfere with the absorbance readings and drug release was quantified through the absorbance measured at 266 nm. A standard calibration plot of 5-FU absorbance was constructed to correlate absorbance with drug release levels. All experiments were conducted with triplicate polymer samples.

COS-1 cells [3] = test: Cytotoxicity of drug released into culture medium over timed intervals
LN-229 cells [4] = test: Clonogenic assay; assay type: cell-based, human; details: 12 days; drugs at 50 μM or wafer with 1 mg fenofibrate
Description: CHLONOGENIC ASSAY. […] Control cells were treated with the vehicle (DMSO). […] All the conditions were tested in duplicate and each experiment was performed at least three times.

[5] = Tissue distribution of FF and FA after oral fenofibrate in mice (HPLC); assay type: in vivo; details: for concentration at 4 weeks: Balb c/nude, mouse, oral, 50 mg/kg/day
Description: ANIMAL STUDIES. […] according to the standard ethically accepted procedure, and the following organs/body fluids were collected: blood, urine, liver, kidneys, spleen, heart, lungs, intact brain and intracranial tumor tissue.
(§1) HIGH PERFORMANCE LIQUID CHROMATOGRAPHY. […] DAD wavelength was set to 285 nm.
For body fluids concentrations are calculated per ml of the body fluid, and in solid tissues per mg of the tissue.

LN-229 cells [6] = tested on: LN-229 cells
Text: as §1
HPLC parameters are given in the materials and methods section and in the legend to FIG. 39. Data represent average values from 2 experiments in triplicate (n=6)±SD (SD values for some points are too small to be visible). […] To test this alternative interpretation, we collected conditioned medium from the LN-229 cells cultured for 72 hrs.

[7] = 120 h
LN-229 cells [8] = details: human, 24 h, 25 µM
Description: (§2) Blood plasma, cell culture media, cellular and tissue lysates, were deproteinized by adding 150 μl of acetonitrile to 150 μl of sample, mixed well and centrifuged (15 000 g, 5 min). […] For the subcellular fractionation, subconfluent monolayer cultures were washed in phosphate buffered saline (PBS) twice, then cells were scraped and lysed in 2% sodium dodecyl sulphate (SDS) in PBS. The lysates were sonicated on ice and centrifuged (15 000 g, 5 min). Finally, 150 μl of the supernatant was mixed with the equal volume of acetonitrile, filtered through 0.22 μm centrifuge filter (Sigma) and analyzed by High Performance Liquid Chromatography (HPLC).
(§3) All data were obtained from the Agilent Technologies 1100 apparatus equipped with a line degasser, binary pump (high pressure mixer), autosampler, column thermostat and Diode Array Detector (DAD). The YMCBase, 3 μm 4.6×150 mm analytical column was used and solvent A—50 mM acetic acid in water or solvent B—acetonitrile, with isocratic flow 60%. Flow rate was set to 1 ml/min, column temperature was 20° C., and 5 μl of 0.22 μm filtered sample was injected. DAD wavelength was set to 285 nm.
(§4) Data represent average values from three separate measurements with standard deviation.

[9] = HPLC detection of FF to FA conversion in human blood; assay type: in vitro ADME; details: 50 μM FF in human blood, 4 hours, 37° C.
Text: as §1

LN-229 cells [10] = test: Subcellular distribution of FF and FA in LN-229 membrane and cytosolic fractions (HPLC); details: per 10^6 LN-229 cells, 25 μM fenofibrate, 24 hrs
Description: as §2, §3, §4

[11] = tested on: blood-brain barrier (BBB) in vitro model; details: coculture with inserts; cited from earlier work
[12] = In vitro release of MMC from surface-loaded PLGA films into PBS; assay type: physicochemical; details: films loaded with 1 and 5 μg MMC, absorbance at 364 nm
Description: Aliquots (0.65 mL) of the PBS were removed at specific time intervals after immersion of the polymer samples, and absorbance was measured at 364 nm using a UV spectrophotometer (Shimadzu UV-1700 series). After measurement, the aliquots were returned to the vials to maintain constant volume and sink conditions.

COS-1 cells [13] = test: COS-1 proliferation with MMC-loaded PLGA films, 5-day culture, toluidine blue; assay type: cell-based; details: MMC incorporated into the bulk PLGA film
Description: CELL CULTURE AND RELEASE STUDY. For the dose response study, control samples (no drug) and MMC-containing samples were loaded into sterile 12-well plates. […] COS-1 cells (10^4 cells) were added to each well and the cells were incubated at 37° C. in a humidified 5% CO2-95% air atmosphere. The culture medium was replenished on day 3 and day 5 after the cells were plated. After 5 days of culture, the cell accumulation in each culture dish was assessed. The culture medium was removed and the cell layer was gently washed 3 times with 5 mL of phosphate-buffered saline (PBS). […] The amount of dye in each well was measured by the absorbance at 650 nm, which is equivalent to the number of cells, using UV-Visible spectrophotometer (Model UB-1601, Shimadzu scientific instruments Inc, Houston, Tex.).
For the preliminary dose-response study, COS-1 cells (10^4 cells in 1 mL) were added to each well of a 12-well plate. […] After 5 days of culture, the cell accumulation in each culture dish was assessed by a modification of a previously described procedure (Leavesley D I, Ferguson G D, Wayner E A, et al. Requirement of the integrin beta 3 subunit for carcinoma cell spreading or migration on vitronectin and fibrinogen. J Cell Biol. 1992; 117:1101-1107.) Briefly, culture medium was removed and the cell layer was gently washed 2 times with 2 mL of phosphate-buffered saline (PBS). […]

[14] = Stability of MMC in PBS and after spin-casting in PLGA-dichloromethane; assay type: physicochemical
[15] = In vitro release of model drugs (salicylic acid, ibuprofen) from breath figure and non-porous PLGA and PEG/PLGA films in PBS; assay type: physicochemical; details: PBS 37° C.
Description: Ibuprofen and Salicylic acid were used as model drugs to characterize the release profiles of breath figure polymer films. The equivalent non-porous smooth films were used as controls. In vitro release studies were carried out by incubating 1.5 cm side square drug incorporated films in 15 ml of PBS medium at 37° C. and stirred gently using a magnetic stirrer. At specific time intervals, 0.650 ml aliquots of the solution was withdrawn and centrifuged to remove any possible debris from the degrading polymer. Then, the aliquot was returned to the vial after measuring the absorbance to quantify drug release. The pH of the medium was monitored during the course of the experiment to verify that the solution is buffered adequately during polymer degradation. Ibuprofen and salicylic acid release were quantified through the absorbance at 221 and 296 nm, respectively. Standard calibration plots of ibuprofen and salicylic acid absorbance were constructed to correlate absorbance with drug release levels. All experiments were conducted in triplicate.
The release profile of breath figure PLGA and PEG/PLGA films was carried out in PBS medium (pH 7.4, 0.1M), incubated at 37° C. A non-porous film with the equivalent amount of drug dispersed was used as control. […] FIG. 14 illustrates the cumulative release of salicylic acid from the PLGA film and PEG/PLGA film, respectively, for a period of 2 days. […]

[16] = blood, read-out: concentration in Blood
[17] = urine, read-out: concentration in Urine
[18] = mice, micronized fenofibrate 50 mg/kg/day oral, n = 4
[19] = mice, micronized fenofibrate 50 mg/kg/day oral, n = 6

Structure (SMILES): Cc1cccc(Nc2cc(Cl)nc(SCC(=O)O)n2)c1C [Wy-14,643]
inhibition of clonal growth of LN-229 cells (LN-229 cells [4]): not able to reproduce them

Structure (SMILES): CO[C@@]12[C@H](COC(N)=O)C3=C(C(=O)C(C)=C(N)C3=O)N1C[C@@H]1N[C@@H]12 [MMC, mitomycin C]
active drug released from the film [12]: 20-40%
toxic effect of degraded products on COS-1 cells (COS-1 cells [13]): no toxic effect
loss of activity in PBS at 23 degrees C. ([14]; 50 day incubation, 23 degrees C.): approximately 15%
loss of activity in PBS at 37 degrees C. ([14]; 50 day incubation, 37 degrees C.): ~50%
activity in PBS at 4 degrees C. ([14]; 50 days, 4 degrees C.): retained its activity
loss of activity after dissolving in PLGA-dichloromethane and spin-casting ([14]; spin-cast PLGA film): 100%

Structure (SMILES): O=C(O)c1ccccc1O [salicylic acid]
water solubility [1]: > 2000 µg/mL

Structure (SMILES): Cc1ccc(C)c(OCCCC(C)(C)C(=O)O)c1 [Gemfibrozil, gemfibrozil]
inhibition of clonal growth of LN-229 cells (LN-229 cells [4]): not able to reproduce them

Continued, in another order:

continuous release of drug after the lag phase [2]: 21 days
duration of sharp increase in drug release after the delay [2]: 10 days
lag period after the sharp release phase [2]: 2 to 3 days
delay of the initial release by sealing ([2]; sealed top layer): 3 to 5 days
burst effect in the first 24 hours of incubation ([2]; sealed top layer, 0.1, 0.4, 2 mg 5-FU): no burst effect
Structure (SMILES): O=c1[nH]cc(F)c(=O)[nH]1 [5-FU, 5-fluorouracil]
water solubility (in words) [1]: highly water soluble
killing efficiency (percent of cells killed vs PLGA film without drug) (COS-1 cells [3]; double-layered film with 0.1 mg 5-FU, samples from >15 days of incubation): about 75%
total incubation with culture medium until maximum cytotoxicity (COS-1 cells [3]; double-layered film with 0.4 mg 5-FU): 4 to 5 days

concentration at 4 weeks [5, 16]: 0 µM
concentration at 4 weeks [5, 17]: 0 µM
time of maximal intracellular concentration (LN-229 cells [6]; human, 50 µM): 24 h
stability in culture medium [7]: at least 120 h
amount in cytosolic fraction (LN-229 cells [8]): 2.40 nmol
decrease of FF peak in human blood [9]: about 5 fold
Structure (SMILES): CC(C)OC(=O)C(C)(C)Oc1ccc(C(=O)c2ccc(Cl)cc2)cc1 [FF, fenofibrate]

concentration at 4 weeks [5, 16]: 3.33 µM
concentration at 4 weeks [5, 17]: 5.34 µM
concentration in Intracranial tumor ([5]; mice with intracranial LN-229, micronized fenofibrate 50 mg/kg/day oral, n = 6): 0 nmol/mg
concentration in Heart [5, 18]: 1.31 ± 1.4 nmol/mg
concentration in Spleen [5, 18]: 1.33 ± 1.1 nmol/mg
concentration in Brain ([5]; mice, micronized fenofibrate 50 mg/kg/day oral, n = 5): 0.06 ± 0.1 nmol/mg
concentration in Kidneys [5, 19]: 1.5 ± 0.8 nmol/mg
concentration in Liver [5, 19]: 11.35 ± 3.9 nmol/mg
concentration in Lungs [5, 19]: 0.36 ± 04 nmol/mg
FA detected after FF incubation in filtered conditioned medium (LN-229 cells [6]): did not detect any traces
amount in cytosolic fraction (LN-229 cells [10]): 0.57 nmol
Structure (SMILES): CC(C)(Oc1ccc(C(=O)c2ccc(Cl)cc2)cc1)C(=O)O [FA, fenofibric acid]
BBB permeability coefficient [11]: 11.3 ×10⁻⁶ cm/s

duration of release from films [15]: at least 14 days
Structure (SMILES): CC(C)Cc1ccc(C(C)C(=O)O)cc1 (stereo not shown) [ibuprofen]
water solubility [1]: < 500 µg/mL
